From patent US5569670A, “Combination medications containing alpha-lipoic acid and related” (Asta Medica Aktiengesellschaft, priority 1992, dated 1996)
Where two headings read alike, the source gives them in different places.

Legend:
in vivo [1] = conditions: rat, in vivo
in vivo [2] = conditions: mouse, in vivo
[3] = cited from earlier work
[4] = cited from earlier work; remark: listed apart in the source
rat = experiment: in vivo
mouse = experiment: in vivo
[5] = po, oral administration, LITCHFIELD and WILCOXON method, read-out: acute toxicity LD50

With `O=C(O)CCCCC1CCSS1` (racemic) [alpha-lipoic acid (racemate), 1,2-dithia-cyclopentane-3-valeric acid] as the compound, how does the LD50 (in vivo [1]; po, female) read?
Its LD50 is 1210 mg/kg.

What about the LD50 (in vivo [1]; po, male) of the same compound?
Its LD50 is 1190 mg/kg.

What about the LD50 (in vivo [2]; po, female, read-out: LD50) of the same compound?
The LD50 was 460 mg/kg.

And the LD50 (in vivo [2]; po, male, read-out: LD50)?
Its LD50 is 502 mg/kg.

With `O=C(O)CCCC[C@@H]1CCSS1` [R-alpha-lipoic acid] as the compound, how does the LD50 (in vivo [2]; [5]) read?
Its LD50 is over 1000 mg/kg.

And the “predominant effect of the enantiomer (anti-inflammatory)” value ([3]; in vivo)?
Its value is “predominantly anti-inflammatory effect”.

What about the “anti-inflammatory effect relative to the racemate” value ([3]; x times stronger than the racemate) of the same compound?
Its value is 10 times.

With `O=C(O)CCCC[C@H]1CCSS1` [S-alpha-lipoic acid] as the compound, how does the LD50 (in vivo [2]; [5]) read?
The LD50 was over 1000 mg/kg.

What about the “predominant effect of the enantiomer (antinociceptive)” value ([4]; in vivo) of the same compound?
Its value is “predominantly antinociceptive effect”.

And the “antinociceptive (analgesic) effect relative to the racemate” value ([4]; up to x times stronger than the racemate)?
Its value is “up to 6 times”.

Which results are given for `O=C1O[C@H]([C@@H](O)CO)C(O)=C1O` [Vitamin C, ascorbic acid]?
LD50 (in vivo [1]; iv): 1000 mg/kg; LD50 (in vivo [1]; po): > 5000 mg/kg; LD50 (in vivo [2]; iv, read-out: LD50): 1060 mg/kg; LD50 (in vivo [2]; po, read-out: LD50): 8020 mg/kg

Which LD50 (rat; i.v.) does the source give for Vitamin B6 here?
Its LD50 is 1450 mg/kg.

And the LD50 (rat; p.o.)?
The LD50 was 5500 to 15900 mg/kg.

And the LD50 (mouse; i.v.)?
The LD50 was 1020 mg/kg.

What about the LD50 (mouse; p.o.) of the same compound?
Its LD50 is 8400 mg/kg.
